From patent US20250199015A1, “CYCLIN-DEPENDENT KINASE 2 INHIBITORS FOR MEDICAL TREATMENT” (INCYCLIX BIO, LLC, priority 2022, published 2025)
pIC50: −log10 of the molar value. “Also recorded” adds a separate entry of the source. Like-named read-outs stand apart in the source and are kept apart here.

Columns and labels:
[1] = tested on: phosphorylated Rb (pRb 807/811) in MCF7PDRC15-1 cells; assay: Western blot pRb, palbociclib-resistant MCF7; assay type: cell-based, human
Procedure: Cells were harvested, counted and then plated at 300,000 cells/well in 60 mm tissue culture treated dishes. […] Lysates were clarified by centrifugation at 12,000×g for 15 min at 4° C. and supernatants were transferred to clean tubes. A BCA assay was performed to determine the protein concentration of each lysate. A total of 25 μg of protein was mixed with sample buffer and reducing agent before being run on a 4-12% SDS-PAGE. Protein was transferred to a nitrocellulose membrane and blocked with LI-COR blocking buffer for 1 hour. Membranes were incubated overnight in primary antibody at 4° C. Following 3 washes with TBST, membranes were incubated for 60 minutes in LI-COR secondary antibodies. Following 3 washes in TBST, and one TBS wash, membranes were scanned using a LI-COR OdysseyCLx. Image studio was used for image analysis.

OVCAR-3 xenograft tumor = OVCAR-3 xenograft tumor fragment model (tumor growth, survival); assay type: in vivo, mice; conditions: 100 mpk twice daily
Procedure: OVCAR-3 xenograft tumor fragments were harvested from host animals and implanted into immune-deficient mice (CR1:NU(NCr)-Fox1^nu). The study was initiated at a mean tumor volume of approximately 175-300 mm^3. […] The test agents were delivered at 10 mL/kg by oral gavage. […] Individual replicate values over the course of the experiment are shown in FIG. 19A, extended out to 42 days post-study initiation.

[2] = tested on: T47D parental and therapy-resistant cells; assay: Cell cycle by BrdU flow cytometry in therapy-resistant cells; assay type: cell-based, human; conditions: Compound I with abemaciclib (LYR) or abemaciclib and fulvestrant (LYFR), 7 days
Procedure: The therapy resistant cells were previously incubated with abemaciclib, fulvestrant, and/or palbociclib for prolonged periods to the point of developing drug resistance. Cells were plated in Corning 6 well tissue culture treated plates. Cells were treated for 7 days. Media was spiked with 10 μM BrdU prior to collection. Cells were washed in PBS, trypsinized, collected and centrifuged at 300 RCF for 5 mins. Cells were resuspended in cell culture media and transferred into a 96 well V-bottom plate with roughly 300,000 cells per well. Cells were then stained using the Near-IR Fixable Viability Stain (Invitrogen Cat. L34976) for 20 mins at room temperature, protected from light. Cells were fixed and permeabilized using eBioscience FoxP3/Transcription Factor Staining Buffer Set (Cat. 00-5523-00). DNA was denatured using 2N HCl+0.5% (v/v) Triton X-100 for 30 mins room temperature, agitating every 5-10 mins. The acid was neutralized using 0.1M Na2B4O7·10H2O (pH 8.5) followed by 0.5% BSA in PBS. Cells were then stained with BrdU antibody (Clone 3D4, BioLegend Cat. 364118) for 1 hour at room temperature. Prior to acquisition on the BD A3 Symphony, DNA was stained for 30 minutes using FxCycle Violet ReadyFlow Reagent.
Cell staining was then conducted to monitor cellular proliferation and perform cell cycle analysis of these therapy-resistant cells. […] Similarly, abemaciclib- and fulvestrant-resistant (LYFR) cells administered abemaciclib and fulvestrant were not substantially arrested in the G1 phase (FIG. 147H).

[3] = tested on: pRb (S780) in therapy-resistant T47D/MCF7M cells; assay: Western blot Rb phosphorylation in therapy-resistant cells; assay type: cell-based, human; conditions: combined with a CDK4/6i and/or estrogen therapy, 7 days
Procedure: Retinoblastoma (Rb) phosphorylation status analysis was then conducted in therapy-resistant cells by Western blotting. The T47D human breast carcinoma cell line was grown in RPMI-1640/1× Glutamax/1× Insulin/10% fetal bovine serum and was plated in Corning 6 well tissue culture treated plates. Cells were incubated at 37° C. for 24 hours prior to addition of treatment. Treatments were either DMSO, Compound I, or abemaciclib alone, or Compound I in combination with abemaciclib. Cells were treated for 7 days. All Abemaciclib treated cells received 500 nM Abemaciclib. […] Supernatant was removed, pellet resuspended in 250 μL of 1× Cell Lysis buffer (CST #9803, 1 tablet of PhosSTOP, 1 tablet of complete Protease Inhibitor Cocktail in 5 mL) then incubated on ice for 20 mins. Lysate was centrifuged at 21,000×g for 20 min at 4° C. and supernatant transferred to clean tubes. A DC assay was performed to determine the protein concentration of each lysate. 20 μg of protein was mixed with Laemelli buffer (+5% BME) before being run on homemade 15% gels. For samples normalized to cell number (p-RB and total RB), cells were washed in ice-cold PBS. Cells were counted and 500,000 cells were aliquoted into clean tubes. Cells were centrifuged at 500×g for 4 mins at 4° C. and supernatant discarded. Cell pellets were directly lysed in 100 μL of Laemmli buffer (+5% BME) and boiled at 95° C. for 12 min. […]

MATE1 = MATE1 (Homo sapiens, UniProt Q96FL8); assay: SLC transporter inhibition in HEK293 cells
Sequence of MATE1 (Q96FL8 whole entry): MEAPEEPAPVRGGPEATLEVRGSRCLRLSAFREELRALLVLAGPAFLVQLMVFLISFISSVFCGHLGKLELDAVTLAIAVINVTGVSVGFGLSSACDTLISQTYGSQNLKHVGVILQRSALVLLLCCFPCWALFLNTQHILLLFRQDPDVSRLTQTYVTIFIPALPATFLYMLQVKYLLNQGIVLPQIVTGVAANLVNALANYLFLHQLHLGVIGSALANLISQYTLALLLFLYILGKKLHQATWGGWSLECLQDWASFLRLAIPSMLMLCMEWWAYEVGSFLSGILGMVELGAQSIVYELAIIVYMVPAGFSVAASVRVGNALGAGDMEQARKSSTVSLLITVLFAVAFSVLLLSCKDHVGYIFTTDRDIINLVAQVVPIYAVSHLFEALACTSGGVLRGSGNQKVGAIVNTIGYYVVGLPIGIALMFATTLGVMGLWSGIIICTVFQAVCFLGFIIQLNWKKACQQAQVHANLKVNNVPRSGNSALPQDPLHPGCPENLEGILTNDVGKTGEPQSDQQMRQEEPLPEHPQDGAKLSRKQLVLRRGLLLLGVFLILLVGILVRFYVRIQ

MATE2-K = MATE2-K (Homo sapiens, UniProt Q86VL8); assay: SLC transporter inhibition in HEK293 cells
Sequence of MATE2-K (Q86VL8 1-566 isoform Q86VL8-3): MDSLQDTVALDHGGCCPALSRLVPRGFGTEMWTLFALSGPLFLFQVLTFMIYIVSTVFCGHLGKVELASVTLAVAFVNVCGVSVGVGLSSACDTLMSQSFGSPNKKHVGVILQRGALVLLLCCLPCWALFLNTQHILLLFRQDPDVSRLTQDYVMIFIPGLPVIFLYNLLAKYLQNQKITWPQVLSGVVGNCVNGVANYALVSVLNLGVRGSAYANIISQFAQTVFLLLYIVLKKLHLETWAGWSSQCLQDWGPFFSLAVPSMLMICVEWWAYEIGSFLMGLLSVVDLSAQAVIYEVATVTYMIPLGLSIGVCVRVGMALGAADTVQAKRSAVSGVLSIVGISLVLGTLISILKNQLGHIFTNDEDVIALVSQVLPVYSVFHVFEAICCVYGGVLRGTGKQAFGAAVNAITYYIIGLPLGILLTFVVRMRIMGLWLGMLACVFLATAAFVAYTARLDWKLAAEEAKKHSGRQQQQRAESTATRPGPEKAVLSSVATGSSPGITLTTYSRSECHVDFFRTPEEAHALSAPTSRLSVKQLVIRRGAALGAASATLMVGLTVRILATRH

NS(=O)(=O)c1ccc(Nc2ncc3cc4n(c3n2)C2(CCCCC2)C(=O)NN4)cc1 [Compound I]
phosphorylated Rb (pRb) levels ([1]; 30-1000 nM, 24 hours, no palbociclib): little reduction in phosphorylated Rb (pRb) levels
phosphorylated Rb (pRb) levels ([1]; co-administered with 1 μM palbociclib): substantial reduction in pRb levels
overall survival (OVCAR-3 xenograft tumor): greatest overall survival
tumor volume (OVCAR-3 xenograft tumor; oral gavage, 28 days): reduced tumor volume the most among all treatment conditions
cell cycle arrest of therapy-resistant cells [2]: arrested in G1; also recorded: arrested therapy-resistant LYR cells
Rb phosphorylation in therapy-resistant cells [3]: prevents the phosphorylation
pIC50 (MATE1; MATE1 IC50): 4.88
inhibition at 20 μM (MATE1; human, HEK293 cells expressing MATE1, probe metformin (10 μM)): 62%
pIC50 (MATE2-K): 6.13
Maximum Percent inhibition (MATE2-K; MATE2-K, HEK293 cells): 69%
pIC50 (MATE2-K; human): 6.13
